Assay results published in US20220081435A1, “ANDROGEN RECEPTOR PROTEIN DEGRADERS” (THE REGENTS OF THE UNIVERSITY OF MICHIGAN, priority 2019, published 2022).

Experiments:
LNCaP cells = assay: Cell growth inhibition in LNCaP cells (WST-8 assay); format: cell-based
Experimental: LNCaP were treated with different compounds in charcoal stripped medium in the presence of 0.1 nM of AR agonist R1881 for 7 days. Cell viability was determined by a WST-8 assay.
Cell lines and Cell Culture: All the LNCaP, VCaP and 22RV1 cells used were purchased from American Type Culture Collection (ATCC). LNCaP and 22RV1 cells were grown in RPMI 1640 (Invitrogen), VCaP cells were grown in DMEM with Glutamax (Invitrogen). All of the cells were supplemented with 10% fetal bovine serum (Invitrogen) at 37° C. in a humidified 5% CO2 incubator.

[1] = target: T1, AR protein in VCaP xenograft tumor tissue (Homo sapiens, UniProt P10275); assay: Pharmacodynamics in VCaP xenograft tumor tissue in mice (immunoblotting); format: in vivo; conditions: SCID mice, single dose 50 mg/kg IP
T1 construct: resected control and treated VCaP xenograft tumor tissues were ground into powder in liquid nitrogen and lysed; from tissue; host or cells: VCaP xenograft tumor tissue from SCID mice
T1 sequence (P10275 1-920): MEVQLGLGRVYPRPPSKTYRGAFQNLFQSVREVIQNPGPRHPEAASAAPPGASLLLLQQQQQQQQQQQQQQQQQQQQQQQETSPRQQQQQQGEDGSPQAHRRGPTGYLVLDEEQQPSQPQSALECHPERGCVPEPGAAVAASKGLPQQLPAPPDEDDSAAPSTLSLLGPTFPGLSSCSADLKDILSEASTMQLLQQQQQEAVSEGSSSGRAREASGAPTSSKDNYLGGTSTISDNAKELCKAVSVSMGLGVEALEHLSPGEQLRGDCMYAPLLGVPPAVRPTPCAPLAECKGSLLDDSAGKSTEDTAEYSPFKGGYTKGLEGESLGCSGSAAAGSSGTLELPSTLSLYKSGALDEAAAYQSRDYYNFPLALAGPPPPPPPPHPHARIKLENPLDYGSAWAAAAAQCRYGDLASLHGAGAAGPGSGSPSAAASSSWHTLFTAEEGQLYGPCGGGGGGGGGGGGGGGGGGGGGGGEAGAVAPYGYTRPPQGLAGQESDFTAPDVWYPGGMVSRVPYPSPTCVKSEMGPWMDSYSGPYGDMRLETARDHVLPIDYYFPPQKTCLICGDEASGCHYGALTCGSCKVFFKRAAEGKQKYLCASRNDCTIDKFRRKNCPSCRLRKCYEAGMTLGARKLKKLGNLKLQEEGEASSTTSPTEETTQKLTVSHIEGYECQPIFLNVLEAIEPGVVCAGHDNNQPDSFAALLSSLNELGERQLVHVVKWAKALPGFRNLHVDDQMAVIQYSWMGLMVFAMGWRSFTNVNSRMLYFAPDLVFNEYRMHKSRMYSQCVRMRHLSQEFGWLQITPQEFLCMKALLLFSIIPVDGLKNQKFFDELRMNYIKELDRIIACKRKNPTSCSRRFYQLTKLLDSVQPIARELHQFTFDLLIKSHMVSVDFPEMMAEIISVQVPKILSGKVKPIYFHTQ
Experimental: FIG. 9 is an image of an immunoblotting analysis of a pharmacodynamics (PD) study of AR degrader 34 (ARD-69) in VCaP tumor tissue in mice. SCID mice bearing xenograft VCaP tumors were treated with a single dose of 34 (ARD-69) (IP, 50 mg/kg). Tumor tissues were harvested at the indicated time points for immunoblotting.
Pharmacodynamics Studies in the VCaP Xenograft Models in Mice. All animal experiments were performed under the guidelines of the University of Michigan Committee for Use and Care of Animals and using an approved animal protocol (PI, Shaomeng Wang). Xenograft tumors were established by injecting 5×10^6 VCaP cells in 50% Matrigel subcutaneously on the dorsal side of severe combined immunodeficient (SCID) mice, obtained from Charles River, one tumor per mouse. When tumors reached ˜100 mm^3, mice were randomly assigned to treatment and vehicle control groups. Animals were monitored daily for any signs of toxicity and weighed 2-3 times per week during the treatment period and at least weekly after the treatment ended. For pharmacodynamics analysis, resected control and treated VCaP xenograft tumor tissues were ground into powder in liquid nitrogen and lysed in CST lysis buffer with halt proteinase inhibitors. Twenty micrograms of whole tumor clarified lysates were separated on 4-20% or 4-12% Novex gels. Western blots were performed as detailed in the previous section.

`Cc1ncsc1-c1ccc([C@H](CC(=O)N2CCC(N3CCC(C#Cc4ccc(C(=O)NC5C(C)(C)C(Oc6ccc(C#N)c(Cl)c6)C5(C)C)cc4)CC3)CC2)NC(=O)[C@@H]2C[C@@H](O)CN2C(=O)[C@@H](NC(=O)C2(F)CC2)C(C)(C)C)cc1` (stereo partly drawn) [Compound 34, (2S,4R)—N—((S)-3-(4-((4-(((1r,3r)-3-(3-Chloro-4-cyanophenoxy)-2,2,4,4-tetramethyl-cyclobutyl)carbamoyl)phenyl)ethynyl)-[1,4′-bipiperidin]-1′-yl)-1-(4-(4-methylthiazol-5-yl)phenyl)-3-oxopropyl)-1-((S)-2-(1-fluorocyclopropane-1-carboxamido)-3,3-dimethylbutanoyl)-4-hydroxypyrrolidine-2-carboxamide] was tested, and the “Potency relative to enzalutamide (4) and compound 6 in cell growth inhibition” value (LNCaP cells) was over 100 times, the IC50 (LNCaP cells; charcoal stripped medium, 0.1 nM R1881, 7 days) was 250 pM and the “Persistence of AR protein reduction” value [1] was “at least 48 h”. For the same molecule, the “Persistence of PSA protein reduction” value [1] was 24 to 48 h, the “Level of PSA protein in tumor tissue” value ([1]; at the 3 h time-point) was “effectively reduced” and the “Level of AR protein in tumor tissue” value ([1]; starting at 3 h) was “effectively reduced”.
